Experiments:
[1] = Solid solubility (solidsol); format: physicochemical
human h-PGDS = human h-PGDS (Homo sapiens (Human), UniProt O60760); assay: Enzyme Immunoassay (EIA) method for inhibition of hematopoietic PGD2 synthase; format: biochemical; details: PGD2 formed from PGH2, measured by EIA; read-out: hPGDS EIA IC50
Source text: The compounds of the present invention can be tested for enzymatic inhibiting activity against PGD2 Synthase according to either one of the following assays.
Assay 2: Enzyme Immunoassay (EIA) Method
• a. Preparation of 0.1M K2HPO4/KH2PO4 buffer (pH 7.4) • Prepare 0.1 M KH2PO4 from 1M KH2PO4 (Sigma, Cat# P-8709) • Prepare 0.1 M K2HPO4 from powder of K2HPO4 (Fisher, BP363-500) • Mix 0.1 M K2HPO4 with 0.1 M KH2PO4 to adjust pH to 7.4. • b. Preparation of 0.5% γ-globulin • Add 0.1 g of γ-globulin (Sigma, Cat# G-5009) to 20 mL 0.1 M K2HPO4/KH2PO4 buffer (pH 7.4) and make 1-mL/vial aliquots and store in −80° C. • c. Preparation of 100 mM GSH • Add 307 mg of GSH (Sigma, Cat# G-6529) to 10 mL 0.1 M K2HPO4/KH2PO4 buffer (pH 7.4) and store at −80° C. • d. Preparation of Reaction buffer: • 198 mL of 0.1M K2HPO4/KH2PO4 buffer (pH 7.4) • 2 mM GSH—Prepared from 100 mM GSH • 0.4 g Glycerol • 2 mL of 0.5% γ-globulin • Add 0.4 g of glycerol and 2 mL of 0.5% γ-globulin to 198 mL of 0.1 M K2HPO4/KH2PO4 • buffer (pH7.4). • Add 0.4 mL of 100 mM GSH to 19.6 mL reaction buffer before the assay (enough for two 96-well plates). • e. Preparation of FeCl2/citric acid stopping solution: (8 mg/mL FeCl2, 0.1 M citric acid) • Add 40 mg fresh FeCl2 (IGN, Cat#158046) to 5 mL 0.1 M citric acid (Sigma, Cat# C0759). • f. Preparation of MOX reagent: • 10% EtOH—Add 1 mL of EtOH to 9 mL of ultra pure H2O • Dissolve 0.1 g of methoxylamine (Cayman, Cat#400036/) in 10% EtOH (10 mL). • Add 0.82 g of sodium acetate (Cayman, Cat#400037) to MOX solution and dissolve. II. Materials and Method • Dimethylsulfoxide (DMSO; Sigma; Cat# D2650) • Prostaglandin D2-MOX express EIA kit (Caymen Chemical, Catalog No. 500151)
Before the assay, cool down 10 mL of acetone in polypropylene tubes and empty 96 well plates in ice. All the procedures except compound dilution are performed on ice.
• 1. Dilute compound in DMSO
• 2. […] Total PGD2 levels (pg/mL) were determined in the samples by EIA kits (Cayman Chemical, Catalog No. 500151) • Calculate amount of PGD2 as below • Calculated % Positive control according to the equation below; […]

Sequence of human h-PGDS (O60760 whole entry): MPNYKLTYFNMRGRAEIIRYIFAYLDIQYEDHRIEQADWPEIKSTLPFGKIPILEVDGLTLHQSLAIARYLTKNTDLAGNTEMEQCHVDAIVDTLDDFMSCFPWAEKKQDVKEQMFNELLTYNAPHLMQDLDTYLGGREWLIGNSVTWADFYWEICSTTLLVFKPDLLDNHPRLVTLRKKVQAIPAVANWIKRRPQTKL

Row | Structure (SMILES) | solidsol [1] [µM] | IC50 (human h-PGDS) [nM]
1 | CC(C)(O)c1nc(-c2cccc(CNC(=O)c3cnc(-c4ccccn4)nc3)c2)no1 [Example 1, 2-Pyridin-2-yl-pyrimidine-5-carboxylic acid 3-[5-(1-hydroxy-1-methyl-ethyl)-1,2,4-oxadiazol-3-yl]-benzylamide] | 135.9 | 12
2 | C[C@H](NC(=O)c1cnc(-c2ccccn2)nc1)c1cccc(-c2noc(C(C)(C)O)n2)c1 [Example 2, 2-Pyridin-2-yl-pyrimidine-5-carboxylic acid ((S)-1-{3-[5-(1-hydroxy-1-methyl-ethyl)-1,2,4-oxadiazol-3-yl]-phenyl}-ethyl)-amide] | 854.9 | 11
3 | C[C@@H](NC(=O)c1cnc(-c2ccccn2)nc1)c1cccc(-c2noc(C(C)(C)O)n2)c1 [Example 3, 2-Pyridin-2-yl-pyrimidine-5-carboxylic acid ((R)-1-{3-[5-(1-hydroxy-1-methyl-ethyl)-1,2,4-oxadiazol-3-yl]-phenyl}-ethyl)-amide] | 29.4 | 26

— patent US9469627B2, “Phenyloxadiazole derivatives as PGDS inhibitors” (Sanofi, priority 2009, dated 2016)
